{
  "source": "patent US20140163044A1",
  "about": "“Compound Chemical Medicine Acting on Respiratory Disease, Preparation Process and Use Thereof” (HUNAN JIUDIAN PHARMACEUTICAL CO., LTD., priority 2011, published 2014)",
  "key": {"[1]": {"test_system": "outpatients or inpatients with cough", "assay": "Trials for observing the clinical effect of the tablet in patients with cough", "type": "in vivo", "conditions": "100 cases per group, oral, one tablet 3 times a day, 5-day course; for Efficacy: Ineffective: cough not improved or aggravated; for Efficacy: Improved: cough reduced 3 to 2 points or 2 to 1 points; for Efficacy: Effective: cough reduced to 1 point from 3 points; for Efficacy: Clinically controlled: symptoms disappeared completely", "protocol": "Trials for observing the clinical effect of the tablet of the present invention was conducted in the People's Hospital of Yongshun County, Hunan Province.\n300 outpatients or inpatients with cough caused by acute upper respiratory tract infection, acute tracheitis and bronchitis, community-acquired pneumonia, and acute exacerbation of chronic bronchitis were randomly divided into a treatment group […], 100 patients for each group. Medicines were administered following the double-blind double-dummy positive medicine parallel control method. The tablets of the present invention, the control medicine levodropropizine tablets or carbocisteine tablets were taken by each group, respectively. Each group orally takes the tablets 3 times a day, one tablet (including analog tablet) each time, for a 5-day course of treatment. Other antitussive or expectorant medicine was stopped during the administration. The patients' conventional indicators such as blood pressure, pulse rate, body temperature, respiration, etc.; symptoms of cough; chest x-ray; blood and urine routine tests; liver and kidney functions; adverse reaction records and electrocardiogram were recorded.\nCriteria for evaluating the efficacy are as follows: clinically controlled: symptoms disappeared completely; effective: symptoms of cough reduced to 1 point from 3 points; improved: symptoms of cough reduced to 2 points from 3 points or reduced to 1 points from 2 points; ineffective: symptoms of cough were not improved or aggravated."}, "guinea pigs": {"test_system": "guinea pigs", "assay": "Antitussive effect in guinea pigs (induced cough 1 h or 4 h after oral administration)", "type": "in vivo", "conditions": "for Effect on latent period of cough and cough times (in words): all dose groups; for Cough times before administration (in 5 min) / Latent period of cough / cough count: oral; for Cough times before administration (in 5 min): baseline before administration", "source_text": "The pharmacodynamic test for the pharmaceutical composition of the present invention: • 1. Studies on the Antitussive Effect\nMedicines used in the test:\nTest medicine: self-made tablets of the pharmaceutical composition comprising levodropropizine and carbocisteine by the inventors\nPositive control medicine: levodropropizine tablets and carbocisteine tablets\n150 guinea pigs (half male and half female) with a body mass of 300±25 g are taken and evenly divided into 15 groups, with 10 in each group. The administration group for the tablet of the present invention is divided into high dose group, medium dose group and low dose group, and the tablets are orally administered respectively; the administration groups for the positive control medicine levodropropizine is also divided into high dose group, medium dose group and low dose group. Each dose group is divided into two groups, respectively the group inducing cough at the first hour or the fourth hour after administration."}, "[2]": {"conditions": "60 mg/kg, four hours after administration"}, "[3]": {"conditions": "60 mg/kg, one hour after administration"}, "[4]": {"conditions": "30 mg/kg, four hours after administration"}, "[5]": {"conditions": "30 mg/kg, one hour after administration"}, "[6]": {"conditions": "120 mg/kg, four hours after administration"}, "[7]": {"conditions": "120 mg/kg, one hour after administration"}},
  "data": [
    {"smiles": "N[C@@H](CSCC(=O)O)C(=O)O", "note": "[Carbocisteine tablet, carbocisteine]", "values": [
      {"measurement": "Effective rate", "setting": "[1]", "value": 86, "unit": "%"},
      {"measurement": "Efficacy: Ineffective", "setting": "[1]", "value": 14, "unit": "cases"},
      {"measurement": "Efficacy: Improved", "setting": "[1]", "value": 40, "unit": "cases"},
      {"measurement": "Efficacy: Effective", "setting": "[1]", "value": 18, "unit": "cases"},
      {"measurement": "Efficacy: Clinically controlled", "setting": "[1]", "value": 28, "unit": "cases"},
      {"measurement": "Effect on latent period of cough and cough times (in words)", "setting": "guinea pigs", "value": "no obviously effect on prolonging the latent period of cough and reducing the cough times"},
      {"measurement": "Cough times before administration (in 5 min)", "setting": "guinea pigs; 60 mg/kg group, 1 h group", "value": "25.24 ± 4.53", "unit": "in 5 min"},
      {"measurement": "Cough times before administration (in 5 min)", "setting": "guinea pigs; 60 mg/kg group, 4 h group", "value": "26.04 ± 4.37", "unit": "in 5 min"},
      {"measurement": "Latent period of cough", "setting": "guinea pigs; [2]", "value": "32.56 ± 5.17", "unit": "s"},
      {"measurement": "cough count", "setting": "guinea pigs; [2]", "value": "20 ± 4.24"},
      {"measurement": "Latent period of cough", "setting": "guinea pigs; [3]", "value": "31.28 ± 6.42", "unit": "s"},
      {"measurement": "cough count", "setting": "guinea pigs; [3]", "value": "21.1 ± 3.98"}
    ]},
    {"smiles": "OC[C@@H](O)CN1CCN(c2ccccc2)CC1", "note": "[Levodropropizine tablet, levodropropizine]", "values": [
      {"measurement": "Effective rate", "setting": "[1]", "value": 92, "unit": "%"},
      {"measurement": "Efficacy: Ineffective", "setting": "[1]", "value": 8, "unit": "cases"},
      {"measurement": "Efficacy: Improved", "setting": "[1]", "value": 17, "unit": "cases"},
      {"measurement": "Efficacy: Effective", "setting": "[1]", "value": 15, "unit": "cases"},
      {"measurement": "Efficacy: Clinically controlled", "setting": "[1]", "value": 60, "unit": "cases"},
      {"measurement": "Effect on latent period of cough and cough times (in words)", "setting": "guinea pigs", "value": "effects of prolonging latent period of cough and reducing cough times"},
      {"measurement": "Cough times before administration (in 5 min)", "setting": "guinea pigs; 30 mg/kg group, 1 h group", "value": "25.14 ± 4.37", "unit": "in 5 min"},
      {"measurement": "Cough times before administration (in 5 min)", "setting": "guinea pigs; 30 mg/kg group, 4 h group", "value": "25.74 ± 3.71", "unit": "in 5 min"},
      {"measurement": "Latent period of cough", "setting": "guinea pigs; [4]", "value": "36.34 ± 4.68", "unit": "s"},
      {"measurement": "cough count", "setting": "guinea pigs; [4]", "value": "19.4 ± 5.03"},
      {"measurement": "Latent period of cough", "setting": "guinea pigs; [5]", "value": "38.16 ± 5.88", "unit": "s"},
      {"measurement": "cough count", "setting": "guinea pigs; [5]", "value": "19.1 ± 4.15"},
      {"measurement": "Cough times before administration (in 5 min)", "setting": "guinea pigs; 60 mg/kg group, 1 h group", "value": "25.41 ± 5.26", "unit": "in 5 min"},
      {"measurement": "Cough times before administration (in 5 min)", "setting": "guinea pigs; 60 mg/kg group, 4 h group", "value": "25.89 ± 4.06", "unit": "in 5 min"},
      {"measurement": "Latent period of cough", "setting": "guinea pigs; [2]", "value": "40.27 ± 5.29", "unit": "s"},
      {"measurement": "cough count", "setting": "guinea pigs; [2]", "value": "17.2 ± 3.45"},
      {"measurement": "Latent period of cough", "setting": "guinea pigs; [3]", "value": "42.38 ± 5.98", "unit": "s"},
      {"measurement": "cough count", "setting": "guinea pigs; [3]", "value": "17.6 ± 3.97"},
      {"measurement": "Cough times before administration (in 5 min)", "setting": "guinea pigs; 120 mg/kg group, 1 h group", "value": "25.18 ± 5.31", "unit": "in 5 min"},
      {"measurement": "Cough times before administration (in 5 min)", "setting": "guinea pigs; 120 mg/kg group, 4 h group", "value": "26.27 ± 3.98", "unit": "in 5 min"},
      {"measurement": "Latent period of cough", "setting": "guinea pigs; [6]", "value": "42.18 ± 3.18", "unit": "s"},
      {"measurement": "cough count", "setting": "guinea pigs; [6]", "value": "15.1 ± 3.97"},
      {"measurement": "Latent period of cough", "setting": "guinea pigs; [7]", "value": "49.57 ± 6.87", "unit": "s"},
      {"measurement": "cough count", "setting": "guinea pigs; [7]", "value": "14.2 ± 4.25"}
    ]}
  ]
}
